Tests used:
[1] = biological target: T1, JARID1B (Homo sapiens, UniProt Q9UGL1); experiment: FLAG-JARID1B histone demethylase assay with AlphaScreen detection (HTS and dose response); type: biochemical; settings: for Assay − Artifact Signal (percent): assay signal minus artifact signal; for inhibition at 20 µM: high-throughput screen, compound 20 μM, standard demethylase conditions (10 μM α-KG, 50 μM Fe (II)), read-out: Inhibitory effect (percent); for Assay Signal (percent) / Validation result of HTS active: effect of the compound in the JARID1B AlphaScreen demethylase assay: validation of HTS actives; for Assay Signal (percent): effect of compound in JARID1B AlphaScreen assay; for Validation result of HTS active: effect of the compound in the JARID1B AlphaScreen demethylase assay: total signal before subtraction of artifact signal;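 as to Assay Signal (percent): compound tested at 20 µM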;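 as to Assay − Artifact Signal (percent): compound tested at 20 µM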;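 as to all read-outs here: FLAG-tagged JARID1B at 4 nM acting on a biotinylated H3K4me3 peptide, demethylation read by AlphaScreen luminescence, with hits checked against bio-H3K4me2 without enzyme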
T1 construct: The FLAG tagged full length JARID1B enzyme was expressed in Sf21 insect cells using FLAG-JARID1B baculoviruses; FLAG (N); made in house; host or cells: Sf21 insect cells (baculovirus)

[2] = AlphaScreen counterscreen against bio-H3K4me2 peptide in the absence of enzyme (artifact signal); settings: for Artifact Signal (percent): effect of the compound when incubated with bio-H3K4me2 peptide (counterscreen, no enzyme); for Artifact signal: effect of the compound when it is incubated with bio-H3K4me2 peptide: counterscreen, no enzyme;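 as to all read-outs here: counterscreen run without enzyme against bio-H3K4me2 peptide to remove false positive hits from the JARID1 demethylase AlphaScreen screen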

T1 sequence (Q9UGL1 whole entry): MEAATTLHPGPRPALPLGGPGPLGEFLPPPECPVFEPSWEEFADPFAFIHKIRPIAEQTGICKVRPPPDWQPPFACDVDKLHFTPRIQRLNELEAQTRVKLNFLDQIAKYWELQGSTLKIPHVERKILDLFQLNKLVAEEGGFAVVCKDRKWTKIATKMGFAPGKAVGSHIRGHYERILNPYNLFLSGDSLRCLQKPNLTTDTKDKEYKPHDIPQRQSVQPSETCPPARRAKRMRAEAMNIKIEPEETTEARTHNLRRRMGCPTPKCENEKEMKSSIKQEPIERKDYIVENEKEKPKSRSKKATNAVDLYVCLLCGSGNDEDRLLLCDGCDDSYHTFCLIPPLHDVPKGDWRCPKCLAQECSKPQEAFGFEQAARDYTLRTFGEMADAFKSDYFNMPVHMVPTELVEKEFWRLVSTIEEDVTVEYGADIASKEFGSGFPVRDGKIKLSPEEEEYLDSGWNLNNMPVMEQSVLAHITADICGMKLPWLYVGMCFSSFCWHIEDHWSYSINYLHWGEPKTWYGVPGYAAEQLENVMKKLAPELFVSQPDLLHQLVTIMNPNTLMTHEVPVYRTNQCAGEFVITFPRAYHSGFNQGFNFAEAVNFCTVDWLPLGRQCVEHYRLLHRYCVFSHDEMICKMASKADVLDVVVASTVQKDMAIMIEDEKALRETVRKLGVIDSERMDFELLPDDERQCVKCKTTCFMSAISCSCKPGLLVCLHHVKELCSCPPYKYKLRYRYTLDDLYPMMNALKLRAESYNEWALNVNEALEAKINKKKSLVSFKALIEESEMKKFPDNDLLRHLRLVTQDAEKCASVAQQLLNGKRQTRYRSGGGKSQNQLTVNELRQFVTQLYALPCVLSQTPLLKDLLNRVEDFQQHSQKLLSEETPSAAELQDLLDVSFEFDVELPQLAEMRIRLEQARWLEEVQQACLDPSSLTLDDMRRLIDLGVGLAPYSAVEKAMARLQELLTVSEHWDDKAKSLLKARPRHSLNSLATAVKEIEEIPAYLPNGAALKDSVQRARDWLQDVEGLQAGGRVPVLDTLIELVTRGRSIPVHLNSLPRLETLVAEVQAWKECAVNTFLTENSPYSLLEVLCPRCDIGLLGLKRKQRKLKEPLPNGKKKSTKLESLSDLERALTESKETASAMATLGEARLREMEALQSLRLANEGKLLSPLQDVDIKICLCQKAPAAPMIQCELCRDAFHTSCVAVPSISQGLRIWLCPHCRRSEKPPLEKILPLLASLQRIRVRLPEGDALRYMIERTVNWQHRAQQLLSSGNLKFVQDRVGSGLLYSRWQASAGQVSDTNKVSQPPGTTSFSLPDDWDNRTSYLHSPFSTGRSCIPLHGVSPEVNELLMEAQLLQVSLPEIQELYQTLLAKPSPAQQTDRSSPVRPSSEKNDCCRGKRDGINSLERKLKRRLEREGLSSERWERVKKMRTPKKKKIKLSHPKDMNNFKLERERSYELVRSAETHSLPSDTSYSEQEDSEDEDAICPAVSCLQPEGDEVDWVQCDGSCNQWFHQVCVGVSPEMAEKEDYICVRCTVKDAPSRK

Cn1cnnc1SCC(=O)c1ccc(C(C)(C)C)cc1 [YU149180]
Assay − Artifact Signal (percent) [1]: 52.70% | inhibition at 20 µM [1]: 32% | Assay Signal (percent) [1]: 50.21% | Artifact Signal (percent) [2]: −2.49%

Cc1cccc(C(=O)NNC(=S)NC(=O)CC(C)C)c1 [YU149514]
inhibition at 20 µM [1]: 48.4% | Validation result of HTS active: effect of the compound in the JARID1B AlphaScreen demethylase assay [1]: −2.24 | Artifact signal: effect of the compound when it is incubated with bio-H3K4me2 peptide [2]: −8.22

COC(=O)NC1(C(F)(F)F)C(=O)NC(C)=C1C(=O)OC (centres unmarked) [YU149831]
Assay − Artifact Signal (percent) [1]: 11.45% | inhibition at 20 µM [1]: 34% | Assay Signal (percent) [1]: 13.59% | Artifact Signal (percent) [2]: 2.14%

c1cc2c(cc1CNc1ccc(N3CCCC3)cc1)OCO2 [YU149834]
inhibition at 20 µM [1]: 48.1% | Validation result of HTS active: effect of the compound in the JARID1B AlphaScreen demethylase assay [1]: 28.52 | Artifact signal: effect of the compound when it is incubated with bio-H3K4me2 peptide [2]: 27.95

CCOc1cccc(CNc2ccc(N3CCCC3)cc2)c1 [YU149839]
Assay − Artifact Signal (percent) [1]: 13.21% | inhibition at 20 µM [1]: 47.5% | Assay Signal (percent) [1]: 31.65% | Artifact Signal (percent) [2]: 18.44%

Cc1cc(C(=O)Nc2cccc(Cn3cccn3)c2)cs1 [YU149922]
inhibition at 20 µM [1]: 56.7% | Validation result of HTS active: effect of the compound in the JARID1B AlphaScreen demethylase assay [1]: −6.24 | Artifact signal: effect of the compound when it is incubated with bio-H3K4me2 peptide [2]: −8.78

Cc1cccc(-n2c(=O)c(O)nc3cc([N+](=O)[O-])ccc32)c1 [YU149941]
inhibition at 20 µM [1]: 51.1% | Validation result of HTS active: effect of the compound in the JARID1B AlphaScreen demethylase assay [1]: −12.32 | Artifact signal: effect of the compound when it is incubated with bio-H3K4me2 peptide [2]: −16.01

CC(=O)Nc1ccccc1NC(=O)c1ccc2c(c1)OCO2 [YU149951]
Assay − Artifact Signal (percent) [1]: 8.46% | inhibition at 20 µM [1]: 84.7% | Assay Signal (percent) [1]: 6.61% | Artifact Signal (percent) [2]: −1.85%

CC(NC(=S)Nc1ccc2c(c1)OCO2)c1ccncc1 (centres unmarked) [YU150371]
Assay − Artifact Signal (percent) [1]: 8.09% | inhibition at 20 µM [1]: 31.8% | Assay Signal (percent) [1]: 6.16% | Artifact Signal (percent) [2]: −1.93%

Cc1ccc(NC(=O)C2OCCc3ccccc32)cc1Cl (centres unmarked) [YU150403]
inhibition at 20 µM [1]: 97.5% | Validation result of HTS active: effect of the compound in the JARID1B AlphaScreen demethylase assay [1]: −3.10 | Artifact signal: effect of the compound when it is incubated with bio-H3K4me2 peptide [2]: −6.36

CC1(C)C(=O)C2(CCCCC2)C(=O)OC1c1ccc(O)cc1 (centres unmarked) [YU150447]
inhibition at 20 µM [1]: 34.3% | Validation result of HTS active: effect of the compound in the JARID1B AlphaScreen demethylase assay [1]: 4.56 | Artifact signal: effect of the compound when it is incubated with bio-H3K4me2 peptide [2]: 0.80

O=c1c2c(-c3ccc(Cl)cc3)csc2nc2n1CCC2 [YU150472]
inhibition at 20 µM [1]: 32.1% | Validation result of HTS active: effect of the compound in the JARID1B AlphaScreen demethylase assay [1]: 4.75 | Artifact signal: effect of the compound when it is incubated with bio-H3K4me2 peptide [2]: −2.52

c1ccc(CCc2nn3c(-c4ccncc4)nnc3s2)cc1 [YU150981]
Assay − Artifact Signal (percent) [1]: 48.70% | inhibition at 20 µM [1]: 71.2% | Assay Signal (percent) [1]: 52.35% | Artifact Signal (percent) [2]: 3.65%

CCCc1ccc(OC(=O)c2cc3ccccc3oc2=O)cc1 [YU151027]
inhibition at 20 µM [1]: 37% | Validation result of HTS active: effect of the compound in the JARID1B AlphaScreen demethylase assay [1]: 2.93 | Artifact signal: effect of the compound when it is incubated with bio-H3K4me2 peptide [2]: −4.49

CCOC(=O)C(CCOc1cccc(CC)c1)C(=O)OCC [YU151071]
Assay − Artifact Signal (percent) [1]: 9.86% | inhibition at 20 µM [1]: 96.7% | Assay Signal (percent) [1]: 6.13% | Artifact Signal (percent) [2]: −3.73%

COc1ccc(C2CC(c3cccnc3)Nc3nnnn32)cc1 (centres unmarked) [YU151128]
Assay − Artifact Signal (percent) [1]: 8.40% | inhibition at 20 µM [1]: 59.7% | Assay Signal (percent) [1]: 6.20% | Artifact Signal (percent) [2]: −2.19%

O=C(O)CSc1nc2cc(F)c(N3CCOCC3)cc2[nH]1 [YU151409]
inhibition at 20 µM [1]: 45.1% | Validation result of HTS active: effect of the compound in the JARID1B AlphaScreen demethylase assay [1]: 4.03 | Artifact signal: effect of the compound when it is incubated with bio-H3K4me2 peptide [2]: −0.23

COc1cc(C(=S)N2CC(C)OC(C)C2)cc(OC)c1O (centres unmarked) [YU151441]
Assay − Artifact Signal (percent) [1]: 16.81% | inhibition at 20 µM [1]: 30.8% | Assay Signal (percent) [1]: 12.98% | Artifact Signal (percent) [2]: −3.82%

Oc1cccc(C(=S)N2CCN(Cc3ccccc3)CC2)c1 [YU151559]
Assay − Artifact Signal (percent) [1]: 18.39% | inhibition at 20 µM [1]: 36.9% | Assay Signal (percent) [1]: 27.61% | Artifact Signal (percent) [2]: 9.22%

O=C(Cn1c(=O)oc2ccccc21)Nc1cccc([N+](=O)[O-])c1 [YU151591]
Assay − Artifact Signal (percent) [1]: 14.61% | inhibition at 20 µM [1]: 35% | Assay Signal (percent) [1]: 16.26% | Artifact Signal (percent) [2]: 1.65%

COC(=O)Nc1ccc(S(=O)(=O)N2CCCCCC2)cc1 [YU151614]
inhibition at 20 µM [1]: 85.5% | Validation result of HTS active: effect of the compound in the JARID1B AlphaScreen demethylase assay [1]: −1.67 | Artifact signal: effect of the compound when it is incubated with bio-H3K4me2 peptide [2]: −4.92

CC(=O)Oc1c([N+](=O)[O-])cc2c(c1Br)CCCC2 [YU151714]
Assay − Artifact Signal (percent) [1]: 12.20% | inhibition at 20 µM [1]: 32.3% | Assay Signal (percent) [1]: 13.44% | Artifact Signal (percent) [2]: 1.24%

O=C(O)c1cc2cc(Cc3ccccc3Cl)ccc2oc1=O [YU151859]
inhibition at 20 µM [1]: 84.4% | Validation result of HTS active: effect of the compound in the JARID1B AlphaScreen demethylase assay [1]: 9.33 | Artifact signal: effect of the compound when it is incubated with bio-H3K4me2 peptide [2]: 5.15

Cc1ccc(NC(=O)CC2SC3=NCCCN3C2=O)c(C)c1 (centres unmarked) [YU152183]
inhibition at 20 µM [1]: 39.4% | Validation result of HTS active: effect of the compound in the JARID1B AlphaScreen demethylase assay [1]: 6.95 | Artifact signal: effect of the compound when it is incubated with bio-H3K4me2 peptide [2]: 1.46

Cc1ccc(C)c(NS(=O)(=O)c2ccc3[nH]c(=O)oc3c2)c1 [YU152226]
Assay − Artifact Signal (percent) [1]: 11.28% | inhibition at 20 µM [1]: 60.1% | Assay Signal (percent) [1]: 5.25% | Artifact Signal (percent) [2]: −6.03%

Cc1nn2c(=O)[nH]c3sc4c(c3c2nc1=O)CC(C)(C)OC4 [YU152236]
Assay − Artifact Signal (percent) [1]: 43.69% | inhibition at 20 µM [1]: 51.6% | Assay Signal (percent) [1]: 49.40% | Artifact Signal (percent) [2]: 5.71%

Nc1c([N+](=O)[O-])cc(F)c(N2CCOCC2)c1Br [YU152451]
inhibition at 20 µM [1]: 74.6% | Validation result of HTS active: effect of the compound in the JARID1B AlphaScreen demethylase assay [1]: 2.82 | Artifact signal: effect of the compound when it is incubated with bio-H3K4me2 peptide [2]: −3.09

O=C(NCc1ccccn1)c1ccc(NC(=O)c2ccco2)cc1 [YU152560]
inhibition at 20 µM [1]: 41.5% | Validation result of HTS active: effect of the compound in the JARID1B AlphaScreen demethylase assay [1]: −1.53 | Artifact signal: effect of the compound when it is incubated with bio-H3K4me2 peptide [2]: −6.86

COC(=O)C1=C(C)NC(=O)C1(Nc1nccs1)C(F)(F)F (centres unmarked) [YU152562]
inhibition at 20 µM [1]: 39.4% | Validation result of HTS active: effect of the compound in the JARID1B AlphaScreen demethylase assay [1]: −8.43 | Artifact signal: effect of the compound when it is incubated with bio-H3K4me2 peptide [2]: −15.40

Cc1cccc(OCC(=O)Nc2ccccc2OC(F)F)c1C [YU152564]
inhibition at 20 µM [1]: 99.6% | Validation result of HTS active: effect of the compound in the JARID1B AlphaScreen demethylase assay [1]: 9.13 | Artifact signal: effect of the compound when it is incubated with bio-H3K4me2 peptide [2]: 4.29

CCOc1cc(Cl)c(S(=O)(=O)n2ccnc2)cc1Cl [YU152583]
inhibition at 20 µM [1]: 45.9% | Validation result of HTS active: effect of the compound in the JARID1B AlphaScreen demethylase assay [1]: 1.32 | Artifact signal: effect of the compound when it is incubated with bio-H3K4me2 peptide [2]: −4.74

COc1cc(C=O)cc(Cl)c1OCc1cccc([N+](=O)[O-])c1 [YU152587]
inhibition at 20 µM [1]: 98.2% | Validation result of HTS active: effect of the compound in the JARID1B AlphaScreen demethylase assay [1]: −1.32 | Artifact signal: effect of the compound when it is incubated with bio-H3K4me2 peptide [2]: −2.67

CCCCOc1ccc(NC(=O)CSc2nnnn2C)cc1 [YU152624]
inhibition at 20 µM [1]: 37.7% | Validation result of HTS active: effect of the compound in the JARID1B AlphaScreen demethylase assay [1]: −1.90 | Artifact signal: effect of the compound when it is incubated with bio-H3K4me2 peptide [2]: −4.45

COc1ccccc1NC(=O)COc1ccc(CO)cc1Cl [YU152649]
inhibition at 20 µM [1]: 99% | Validation result of HTS active: effect of the compound in the JARID1B AlphaScreen demethylase assay [1]: 6.08 | Artifact signal: effect of the compound when it is incubated with bio-H3K4me2 peptide [2]: 0.22

N#Cc1c(NC(=O)c2cnn3cccnc23)sc2c1CCCC2 [YU152893]
inhibition at 20 µM [1]: 84.5% | Validation result of HTS active: effect of the compound in the JARID1B AlphaScreen demethylase assay [1]: 9.21 | Artifact signal: effect of the compound when it is incubated with bio-H3K4me2 peptide [2]: 1.62

CN1C(=O)c2ccc(NC(=O)c3ccc4c(c3)OCO4)cc2C1=O [YU152920]
inhibition at 20 µM [1]: 96.7% | Validation result of HTS active: effect of the compound in the JARID1B AlphaScreen demethylase assay [1]: 0.53 | Artifact signal: effect of the compound when it is incubated with bio-H3K4me2 peptide [2]: −2.69

Reference: patent US20150272939A1, “Identification of Small Molecule Inhibitors of Jumonji AT-Rich Interactive Domain 1A (JARID1A) and 1B (JARID1B) Histone Demethylase” (Yale University, priority 2012, published 2015)
